In patent publication US20240425478A1, “CYCLOPENTYLPYRAZOLE CDK2 INHIBITORS” (Genentech, Inc., priority 2021, published 2024):
Like-named read-outs stand apart in the source and are kept apart here.

Columns and labels:
[1] = molecular target: T1, Cyclin Dependent Kinase 4/Cyclin D3 (CDK4-cycD3) (Homo sapiens, UniProt P11802); assay: CDK4-cycD3 TR-FRET (LANCE) enzyme assay; type: biochemical; settings: Table O, enzymatic assay
T1 construct: purchased Carna Biosciences 04-105
Protocol: (§1) Cyclin Dependent Kinase 1/Cyclin A2 (CDK1-cycA2), Cyclin Dependent Kinase 2/Cyclin E1 (CDK2-cycE1), Cyclin Dependent Kinase 4/Cyclin D3 (CDK4-cycD3) and Cyclin Dependent Kinase 6/Cyclin D3 (CDK6-cycD3) enzyme assays were carried out as described below.
(iii) CDK4-cycD3 TR-FRET (LANCE®)
(§2) An Echo acoustic dispenser is used to create dose responses of compound dissolved in DMSO into a 384-well microplate. A 5 μL volume of enzyme mix is added to the well, and pre-incubated with compound for 30 minutes. […] Buffer conditions are 50 mM HEPES, pH 7.5, 10 mM MgCl2, 2 mM TCEP, 0.05% BGG and 0.01% Brij 35. The reaction is quenched with 5 μL of EDTA in detection buffer (15 mM [EDTA final]). Finally, a 5 μL TR-FRET detection mix is added to the quenched reaction, which includes Europium labeled anti-phospho-4E-BP1. […] Signal is a ratio of the Acceptor and Donor fluorescence. Inhibition constants are calculated via the Morrison equation.

[2] = molecular target: T2, Cyclin Dependent Kinase 1/Cyclin A2 (CDK1-cycA2) (Homo sapiens, UniProt P06493); assay: CDK1-cycA2 TR-FRET (Lance) enzyme assay; type: biochemical; settings: Table O, enzymatic assay
T2 construct: purchased ProQinase 0134-0054-1
T2 sequence (P06493 whole entry): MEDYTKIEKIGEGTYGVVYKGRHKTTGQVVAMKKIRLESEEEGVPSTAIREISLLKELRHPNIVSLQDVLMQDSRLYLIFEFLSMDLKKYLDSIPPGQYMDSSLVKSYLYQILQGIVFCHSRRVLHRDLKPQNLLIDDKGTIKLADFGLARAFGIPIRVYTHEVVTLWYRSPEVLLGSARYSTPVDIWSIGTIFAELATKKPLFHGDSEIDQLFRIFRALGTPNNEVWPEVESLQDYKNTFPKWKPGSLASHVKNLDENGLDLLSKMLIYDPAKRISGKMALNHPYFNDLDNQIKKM
T2 sequence (P20248 whole entry partner): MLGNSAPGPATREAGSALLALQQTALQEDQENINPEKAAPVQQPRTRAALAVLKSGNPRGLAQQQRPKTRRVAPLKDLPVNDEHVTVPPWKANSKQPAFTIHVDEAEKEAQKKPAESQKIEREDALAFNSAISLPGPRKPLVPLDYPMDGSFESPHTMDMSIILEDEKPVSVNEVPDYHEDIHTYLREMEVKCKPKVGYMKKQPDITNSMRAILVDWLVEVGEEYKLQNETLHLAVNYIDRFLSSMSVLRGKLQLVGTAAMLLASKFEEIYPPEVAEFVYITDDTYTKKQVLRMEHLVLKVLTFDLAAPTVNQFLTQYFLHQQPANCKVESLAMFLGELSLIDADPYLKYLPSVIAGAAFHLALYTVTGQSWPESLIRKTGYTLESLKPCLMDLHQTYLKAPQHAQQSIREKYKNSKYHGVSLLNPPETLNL
Protocol: as §1
(1) CDK1-cycA2 TR-FRET (Lance®)
as §2

[3] = system: OVISE (JCRB1043, CCNE1-amplified); assay: OVISE EdU incorporation cell proliferation assay (CDK2-dependent); type: cell-based; settings: for IC50: cellular assay, read-out: CDK2 OVISE IC50; for FS SKOV-3/OVISE: fold selectivity; for increased fold-selectivity SKOV-3/OVISE over Comparator C: (+) sign after FS SKOV-3/OVISE; for improvement in CDK2 OVISE cell potency over Comparator C: in brackets after OVISE IC50, Comparator C 5.5 μM
Protocol: (§3) (i) OVISE and SKOV-3 EdU Incorporation Cell Proliferation Assays
(§4) Ovarian cancer cell proliferation is measured by incorporation of EdU (5-ethynyl-2′-deoxyuridine) into newly synthesized DNA. CDK2-dependent proliferation is determined using OVISE (JCRB1043, CCNE1-amplified) while CDK4/6-dependent effect is determined with SKOV-3 (ATCC HTB-77) which is not CCNE1-amplified.
(§5) Cells are plated in 384-well plates in RPMI medium supplemented with 10% FBS. Compounds are added at desired concentrations with a final DMSO content of 0.5%, and cells incubated at 37° C./5% CO2 for 16 hours. EdU (Life Technologies) is added to a final concentration of 0.5 μM and incubation continued for 8 hours, followed by fixation with 4% paraformaldehyde. […] Images are acquired using Yokogawa CQ1 imaging cytometer with a 10×objective. […] The IC50 for inhibition of cell division is determined by fitting the fraction of EdU-positive cells as a function of compound dose using a 4-parameter logistic model.

SKOV-3 (ATCC HTB-77) = assay: SKOV-3 EdU incorporation cell proliferation assay (CDK4/6-dependent); type: cell-based; settings: Homo sapiens, cellular assay, read-out: CDK4/6 SKOV-3 IC50
Protocol: as §3, §4, §5

[4] = molecular target: T3, Cyclin Dependent Kinase 2/Cyclin E1 (CDK2-cycE1) (Homo sapiens, UniProt P24941); assay: CDK2-cycE1 TR-FRET (LANCE) enzyme assay; type: biochemical; settings: for Ki: enzymatic assay, read-out: CDK2 Ki; for FS CDK1/CDK2 / FS CDK4/CDK2: fold selectivity; for increased fold-selectivity CDK4/CDK2 over Comparator C: (+) sign after FS CDK4/CDK2;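 on improvement in potency against CDK2 (Ki) over Comparator C: fold lower CDK2 Ki than comparator c (Ki 0.032 µM)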
T3 construct: purchased ProQinase 0050-0055-1
Protocol: as §1
(ii) CDK2-cycE1 TR-FRET (LANCE®)
as §2, with “anti-phospho-MBP.” for “anti-phospho-4E-BP1.”, “equation. Enzyme source of CDK2-cycE1 is ProQinase, catalog #: 0050-0055-1.” for “equation.”

[5] = Table O, cellular SKOV-3 IC50 over OVISE IC50
[6] = Table O, enzymatic CDK1 Ki over CDK2 Ki
[7] = Table O, enzymatic CDK4 Ki over CDK2 Ki
[8] = Table Q, in brackets after CDK2 Ki, Comparator C 0.032 μM

T1 sequence (P11802 whole entry): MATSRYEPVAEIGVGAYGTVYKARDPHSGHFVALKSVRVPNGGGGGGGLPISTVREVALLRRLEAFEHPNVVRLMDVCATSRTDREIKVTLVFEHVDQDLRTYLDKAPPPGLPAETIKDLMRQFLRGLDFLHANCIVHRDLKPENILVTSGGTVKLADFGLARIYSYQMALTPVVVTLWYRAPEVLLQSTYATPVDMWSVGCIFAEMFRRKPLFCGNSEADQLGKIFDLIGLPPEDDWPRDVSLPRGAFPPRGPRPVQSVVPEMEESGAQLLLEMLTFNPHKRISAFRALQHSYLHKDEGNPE
T1 sequence (P30281 whole entry partner): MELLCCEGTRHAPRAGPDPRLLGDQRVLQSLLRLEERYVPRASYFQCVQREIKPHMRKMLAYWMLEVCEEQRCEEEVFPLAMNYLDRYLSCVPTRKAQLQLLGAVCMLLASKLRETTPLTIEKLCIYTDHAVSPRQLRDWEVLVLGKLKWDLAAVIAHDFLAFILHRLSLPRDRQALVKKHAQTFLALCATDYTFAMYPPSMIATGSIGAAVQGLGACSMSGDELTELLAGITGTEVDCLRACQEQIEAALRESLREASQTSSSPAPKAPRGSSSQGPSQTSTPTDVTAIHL

| Compound | Ki [1] [nM] | Ki [2] [nM] | IC50 ([3]; Table O) [nM] | FS SKOV-3/OVISE [3, 5] | IC50 (SKOV-3 (ATCC HTB-77); SK-OV-3, Table O) [nM] | Ki ([4]; Table O) [nM] | FS CDK1/CDK2 [4, 6] | FS CDK4/CDK2 [4, 7] | increased fold-selectivity SKOV-3/OVISE over Comparator C ([3]; Table Q) | FS SKOV-3/OVISE ([3]; Table Q, cellular) | improvement in CDK2 OVISE cell potency over Comparator C ([3]; Table Q) [fold] | IC50 (SKOV-3 (ATCC HTB-77); SK-OV-3, Table Q) [nM] | improvement in potency against CDK2 (Ki) over Comparator C [4] [fold] | increased fold-selectivity CDK4/CDK2 over Comparator C ([4]; Table Q) | Ki ([4]; Table Q) [nM] | FS CDK1/CDK2 ([4]; Table Q, enzymatic) | FS CDK4/CDK2 ([4]; Table Q, enzymatic) | improvement in potency against CDK2 (Ki) over Comparator C [4, 8] [fold] | IC50 ([3]; Table Q) [nM] |
| --- | --- | --- | --- | --- | --- | --- | --- | --- | --- | --- | --- | --- | --- | --- | --- | --- | --- | --- | --- |
| CC(C)NC(=O)O[C@@H]1CC[C@H](c2cc(Nc3ccc(-n4ccnc4)nc3)n[nH]2)C1 [Example 2J, (1R,3S)-3-(3-((6-(1H-imidazol-1-yl)pyridin-3-yl)amino)-1H-pyrazol-5-yl)cyclopentyl isopropylcarbamate] | 230 | 200 | 440 | 25 | 11000 | 10 | 20 | 23 |  |  |  |  |  |  |  |  |  |  |  |
| COc1ccc(Nc2cc([C@H]3CC[C@@H](OC(=O)NC(C)C)C3)[nH]n2)nn1 [Example 2JJ, (1R,3S)-3-(3-((6-methoxypyridazin-3-yl)amino)-1H-pyrazol-5-yl)cyclopentyl isopropylcarbamate] | 1200 | 1200 | 4100 | <1 | 3.2 | 77 | 16 | 16 |  |  |  |  |  |  |  |  |  |  |  |
| CC(C)NC(=O)O[C@@H]1CC[C@H](c2cc(Nc3cncc(N(C)C)n3)n[nH]2)C1 [Example 2P, (1R,3S)-3-(3-((6-(dimethylamino)pyrazin-2-yl)amino)-1H-pyrazol-5-yl)cyclopentyl isopropylcarbamate] | 180 | 33 | 370 | 14 | 5300 | 4.2 | 7.9 | 43 | (+) (The (+) sign in Table Q signifies desirable increased fold-selectivity of the exemplary compounds over Comparator C) | 14 | 14.9 | 5300 | 8 | (+) (The (+) sign in Table Q signifies desirable increased fold-selectivity of the exemplary compounds over Comparator C) | 4.2 | 7.9 | 43 |  |  |
| CC(C)NC(=O)O[C@@H]1CC[C@H](c2cc(Nc3ncnc(N(C)C)n3)n[nH]2)C1 [Example 2Q, (1R,3S)-3-(3-((4-(dimethylamino)-1,3,5-triazin-2-yl)amino)-1H-pyrazol-5-yl)cyclopentyl isopropylcarbamate] | 1500 | 670 | 2400 | >8.3 | > 20000 | 41 | 16 | 37 | (+) (The (+) sign in Table Q signifies desirable increased fold-selectivity of the exemplary compounds over Comparator C) | > 8.3 | 2.3 | > 20000 |  | (+) (The (+) sign in Table Q signifies desirable increased fold-selectivity of the exemplary compounds over Comparator C) | 41 | 16 | 37 | 0.8 |  |
| Cc1cc(=O)n(C)cc1Nc1cc([C@H]2CC[C@@H](OC(=O)NC(C)C)C2)[nH]n1 [Example 2S, (1R,3S)-3-(3-((1,4-dimethyl-6-oxo-1,6-dihydropyridin-3-yl)amino)-1H-pyrazol-5-yl)cyclopentyl isopropylcarbamate] | 12000 | 7400 | > 20000 | 1.0 | > 20000 | 890 | 8.3 | 13 |  | 1.0 | 0.28 | > 20000 |  | (+) (The (+) sign in Table Q signifies desirable increased fold-selectivity of the exemplary compounds over Comparator C) | 890 | 8.3 | 13 | 0.4 | > 20000 |
| Cc1ncncc1Nc1cc([C@H]2CC[C@@H](OC(=O)NC(C)C)C2)[nH]n1 [Example 2U, (1R,3S)-3-(3-((4-methylpyrimidin-5-yl)amino)-1H-pyrazol-5-yl)cyclopentyl isopropylcarbamate] | 1800 | 560 | 400 | >50 | > 20000 | 15 | 37 | 120 | (+) (The (+) sign in Table Q signifies desirable increased fold-selectivity of the exemplary compounds over Comparator C) | > 50 | 13.8 | > 20000 | 2 | (+) (The (+) sign in Table Q signifies desirable increased fold-selectivity of the exemplary compounds over Comparator C) | 15 | 37 | 120 |  |  |
| Cc1ncc(Nc2cc([C@H]3CC[C@@H](OC(=O)NC(C)C)C3)[nH]n2)c(C)n1 [Example 2W, (1R,3S)-3-(3-((2,4-dimethylpyrimidin-5-yl)amino)-1H-pyrazol-5-y1)cyclopentyl isopropylcarbamate] | 3100 | 1100 | 2700 | >7.4 | > 20000 | 42 | 26 | 74 | (+) (The (+) sign in Table Q signifies desirable increased fold-selectivity of the exemplary compounds over Comparator C) | > 7.4 | 2 | > 20000 | 0.8 | (+) (The (+) sign in Table Q signifies desirable increased fold-selectivity of the exemplary compounds over Comparator C) | 42 | 26 | 74 |  |  |
| COc1ncc(Nc2cc([C@H]3CC[C@@H](OC(=O)NC(C)C)C3)[nH]n2)c(C)n1 [Example 2X, (1R,3S)-3-(3-((2-methoxy-4-methylpyrimidin-5-yl)amino)-1H-pyrazol-5-yl)cyclopenty1 isopropylcarbamate] | 3800 | 1200 | 2800 | >7.1 | > 20000 | 59 | 20 | 64 | (+) (The (+) sign in Table Q signifies desirable increased fold-selectivity of the exemplary compounds over Comparator C) | > 7.1 | 2 | > 20000 | 0.5 | (+) (The (+) sign in Table Q signifies desirable increased fold-selectivity of the exemplary compounds over Comparator C) | 59 | 20 | 64 |  |  |
